According to patent publication US20110098184A1, “Competitve differntial screeing” (priority 2004, published 2011):
Bridge positions count the residues as written; N and C are the ends. Peptide text beside a SMILES is read from it.

Molecular target: human stratum cornium chymotrypsin (hSCC) (Homo sapiens, UniProt P49862)
Test: Mass spectrometric screening of a protein library against immobilized hSCC in the presence of competitor Ecotin
Type: binding
Settings: library 10 nM per member, competitor Ecotin at 1 nM, 100 nM, 4 hrs incubation, biotinylated hSCC on streptavidin beads
Source text: In this Example, mass spectrometric screening experiments are described. FIGS. 10-13 provide data and calculations obtained during these experiments. Inhibitors of human stratum cornium chymotrypsin (hSCC) were screened from a protein library made of BBI-loop-BLA (See e.g., U.S. patent application Ser. Nos. 10/984,270 and 10/984,410; and PCT Appln. Nos. US04/36976, US04/36979; and US04/36980), all of which are incorporated by reference herein). The protein library consisted of a protein backbone in which three non-consecutive positions were randomized (cysteine constrained) at the N-terminus of the protein. HSCC (screening target) (Swissprot, accession number P49862) was biotinylated and immobilized on streptavidin beads (MagnaBind Beads; Pierce).
HSCC was incubated with a protein library at 10 nM per library member in the presence of a competitor (Ecotin; Sigma) added at 1 nM, 10 nM, and 100 nM concentrations. Following incubation (4 hrs), the beads were washed with incubation buffer to remove nonspecific binders and specific binders were eluted with an elution solution.
The recovered binders were concentrated (vacuum concentration), resuspended in a digestion buffer, reduced, alkylated, and digested with proteolytic enzyme (Lys-c; Roche). The resulting protein digests were analyzed by capillary LC-ESI-MS/MS. […]

human stratum cornium chymotrypsin (hSCC), sequence (P49862 30-253): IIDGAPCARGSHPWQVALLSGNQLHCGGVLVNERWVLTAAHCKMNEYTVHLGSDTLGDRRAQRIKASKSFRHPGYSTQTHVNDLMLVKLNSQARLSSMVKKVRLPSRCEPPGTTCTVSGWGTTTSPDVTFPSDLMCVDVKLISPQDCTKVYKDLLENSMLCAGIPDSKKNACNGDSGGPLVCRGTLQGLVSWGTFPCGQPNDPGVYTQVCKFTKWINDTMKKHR

With `C[C@@H](O)[C@@H]1NC(=O)[C@@H](NC(=O)[C@@H]2CCCN2)CSSC[C@@H](C(=O)N[C@@H](Cc2ccc(O)cc2)C(=O)NCC(=O)NCC(=O)NCC(=O)N[C@@H](CCCCN)C(=O)O)NC(=O)[C@H](CCC(N)=O)NC(=O)[C@@H]2CCCN2C(=O)[C@@H]2CCCN2C(=O)[C@H](Cc2ccc(O)cc2)NC(=O)[C@H](CO)NC(=O)[C@H](Cc2ccccc2)NC1=O` [pj02] (H-PCTFSYPPQCYGGGK-OH; disulfide 2-10 (inferred); N-terminus and C-terminus assumed) the “binder observed after elution (capillary LC-ESI-MS/MS)” value was “observed under all conditions”.
